Data reported in paper PMC12583827, “Harnessing microbial-derived metabolites in the urinary tract to prevent infection induced catheter encrustation” (Nature Communications, 2025).
Structures can show the parent of a compound that is named as a salt.

Columns and labels:
UTI MRSA urease = UTI MRSA urease activity assay; assay type: cell-based, Staphylococcus aureus; details: whole cell, urease broth
Experimental: 190 Omega and visualization was carried out using ESPript 3.0 (69), enabling comparison across
191 different clinical isolates. Urease genes, including the full operon from ureA to ureR, were
192 identified and extracted from the prokka annotated genomes. The extracted protein sequences
193 were subjected to sequence alignment using Clustal Omega and visualization was carried out
194 using ESPript 3.0 [8], enabling comparison across different clinical isolates.
195 UTI MRSA urease activity assay. The UTI MRSA urease assay was adapted from a recently-
196 published semi quantitative assay to measure urease activity in bacterial species with low overall
197 activity under standard conditions (50). Dampening metabolites were directly dissolved in urease
198 broth (1 g tryptone (RPI; CAS No. 91079-40-2), 1 g D(+)-glucose (RPI; CAS No. 50-99-7), 2 g
199 potassium phosphate monobasic anhydrous (VWR; Lot: 20C1356567), 5 g sodium chloride
201 of MilliQ water, pH 5.5, sterilized via autoclaving). UTI MRSA strains from overnight cultures
202 were harvested by centrifugation for 5 minutes at 10,000 g, washed with 1 volume of 1X
203 Phosphate Buffered Saline (PBS), and resuspended in urease broth. Bacterial cultures were […]
205 measured at 415 nm, 560 nm, and 600 nm every 20 mins for 24 hours, shaking at 37°C using a
206 BioTek Synergy|H1 microtiter plate reader. Urease activity was calculated by dividing the OD […]

P. mirabilis = assay: Growth and viability of P. mirabilis incubated in dampening metabolites; assay type: cell-based, Proteus mirabilis
Experimental: 345 Supplementary Figure 5. Growth and viability of P. mirabilis incubated in dampening
346 metabolites. (A-B) P. mirabilis was cultured for ~18 hours in LB broth, then diluted 1:100 into
347 fresh LB broth with (A) the highest concentration of each dampening metabolites that was tested
348 for urease-dampening activity or (B) serial dilutions of D-imidazole lactate. Bacterial
349 suspensions were incubated at 37 °C with double-orbital shaking, and OD600 was measured
350 every 15 minutes for 18 hours. Representative growth curves (A-B) show means and standard
351 deviations from three technical replicates. (C-E) Viability of P. mirabilis incubated in serial
352 dilutions of D-imidazole lactate. Overnight cultures were subcultured to mid log phase, washed
353 in potassium phosphate buffer, and diluted 1:10 in either (C,D) potassium phosphate buffer or
354 human urine (E) with and without D-imidazole lactate. Samples were incubated at 37°C with
(1 picture or pasted object on this page, not shown here)

P. stuartii urease = assay: Urease activity assay, whole cell P. stuartii BE2467; assay type: cell-based, Providencia stuartii
Experimental: (§1) Urease activity was measured as described previously in triplicate with at least three biological replicates[21]. Briefly, bacteria were cultured for ~18 h in LB broth, concentrated to an OD600 of 4, washed once in saline, and diluted (1:10 for P. mirabilis and 1:50 for P. stuartii and M. morganii) into candidate dampening metabolites in potassium phosphate buffer or human urine pH7 and supplemented with 500 mM urea and 0.01% phenol red. Bacterial suspensions were distributed into a 96-well plate, incubated at 37 °C with double-orbital shaking in a Synergy H1 plate reader (BioTek), and absorbance (OD562) was measured every 60 seconds for 180 minutes. Isogenic urease mutants (Supplementary Data 1) served as negative controls for P. mirabilis and P. stuartii and a vehicle control served as a negative control for M. morganii.

[1] = tested on: P. mirabilis urease operon (ureABC, ureEDF); assay: Real-time quantitative PCR of urease operon; assay type: cell-based, Proteus mirabilis
Experimental: P. mirabilis was cultured for ~18 h in LB broth and then sub cultured until it reached mid-log growth phase (OD600 0.2-0.5). Cultures were spun down to pellet at 10,000 rcf for 10 minutes and resuspended in saline to a final OD600 of 1.0. Cultures were then diluted 1:10 into dampening metabolites buffered 1:10 in potassium phosphate buffer pH7 and supplemented with 500 mM urea. P. mirabilis in potassium phosphate buffer without urea served as a negative control. Cultures were incubated in potassium phosphate buffer with and without dampening metabolites at 37 °C with shaking for 15 minutes. RNA isolation, cDNA synthesis and RT qPCR were performed as described previously. […] A RNA integrity analysis using agarose gel electrophoresis on extracted RNA was performed for all samples to confirm no change in transcript stability (Supplementary Fig 16A). The data were analyzed according to the Relative Quantification (RQ) method by Pfaffl et al. 2001[54] (See Supplementary Information).
168 Real-time quantitative PCR analysis. The data were analyzed according to the Relative
169 Quantification (RQ) method by Pfaffl et al 2001 (56) in which P. mirabilis potassium phosphate
170 buffer without urea was considered as the ‘Control’ and P. mirabilis in potassium phosphate
171 buffer supplemented with 500mM urea with and without candidate dampening compounds were
172 the ‘Sample.’ The full equation is below.
(E )ΔCPtarget (control−sample)
174 Relative Quantification Ratio = target Equation 2
(Ereference)ΔCPreference (control−sample)
176 In this equation, E refers to the primer efficiency of the target gene (Etarget, urease operon
177 subunits) or the reference gene (Ereference, rpoA), and CP refers to the Cycle Point, or the cycle
178 number at which the signal exceeds the threshold. […]
183 for whole genome sequencing on the Illumina NextSeq2000 platform. Read trimming, and run
184 analytics were performed using Trimmomatic v0.39.0 (62). The processed reads were assembled
185 using spades v3.15.5 (63) wrapped in Unicycler v0.5.0 (64, 65). Read mapping was done using […]

P. mirabilis urease = details: 104V0, 106V15, HU1069 compared with HI4320
Experimental: as §1

[2] = design: method as in PMID 9792207; details: higher doses, four h post intraperitoneal administration; cited from earlier work

## O.O=C(O)[C@H](O)Cc1cnc[nH]1 [D-imidazole lactate, D-imidazolelactic acid hydrate]
UTI MRSA urease
  urease activity in MRSA: least potent
P. mirabilis; LB broth, 18 hours, OD600
  Growth of P. mirabilis in LB broth: perturbed
P. mirabilis; incubation in human urine
  antimicrobial activity against P. mirabilis: less-pronounced activity
P. mirabilis; incubation in potassium phosphate
  antimicrobial activity against P. mirabilis: robust antimicrobial activity
P. stuartii urease
  urease activity in P. stuartii: most potent urease inhibition
[1]; 15-minute incubation, 500 mM urea
  relative expression of urease mRNA transcripts: decreased
[1]; 15 minutes incubation
  pool of rpoA mRNA transcripts: did not affect

## NCCc1c[nH]cn1 [Histamine, histamine dihydrochloride]
P. mirabilis urease
  urease-dampening activity against P. mirabilis clinical isolates: slightly less potent

## Cl.O=C(O)Cc1cnc[nH]1 [4-imidazole acetate, 2-(1H-Imidazol-5-yl)acetic acid hydrochloride]
[2]
  effects in rats: seizures
